Test results: patent publication US9650497B2, “Phosphonamidates-synthesis and flame retardant applications” (EMPA EIDGENOSSISCHE MATERIALPRUFUNGS- UND FORSCHUNGSANSTALT, priority 2011, dated 2017)
Read-outs that look alike come from different tables or passages of the source.

Assays:
[1] = UL-94 HB test (ASTM D4986 or ISO/DIS 9772.3, horizontal); conditions: for flame retardancy effect compared to unmodified DOPO: Table 6; for UL 94 HB test rating (Horizontal): OH terminated prepolymer foam
[2] = BKZ flammability test (Swiss standard, vertical burning)
Experimental: The synthesized compounds were evaluated for flame retardant properties by incorporating them in flexible PU foams.
The flexible polyurethane foams were manufactured according to the recipe mentioned in Table 3 below.
The manufacture of the foams according to the formulations in Table 3 was done by handmix in the laboratory based on 200 gms polyol. The formulation of the components taking part in the reaction was identical in all cases except for the addition of Flame retardants where indicated.
The resulting foams were dried and aged for 3 h at 80° C. The foams were then tested for their flammability according to Swiss flammability standard (BKZ). It's a vertical burning test for foamed materials with a specific sample size (length: 160 mm, width: 60 mm, thickness: 6 mm±10% tolerance). For each specimen flame test (BKZ) was performed in triplicate. If the results were not consistent, each specimen was tested 6 times. For the BKZ test an air dried specimen was placed in a vertical position and subjected to flame from the lower front edge by a standardized flame. The flame height of 20 mm was maintained and should burn constantly with sharp outlines. The burner position was adjusted 45° so that the flame hits the specimen vertically in the middle of the lower front edge. The flame is brought in contact with the foam for 15 sec and should be placed such that the foam bottom is approximately 4±1 mm inside the flame from the tip.

[3] = TGA thermal decomposition of DOPO and amino DOPO derivatives; type: physicochemical; conditions: for TdMax: Temperature for maximum decomposition rate: several values = multiple decomposition stages
Experimental: One of the important objectives of developing various amino derivatives of DOPO was to improve the thermal stability of DOPO itself. This will ensure their suitability to be used in thermoplastic polymers which require usually high processing temperatures (200-350° C.).

[4] = Water solubility of DOPO compounds; type: physicochemical; conditions: for water solubility in words: up to 90° C.; for solubility: water
Description: These DOPO-derivatives are very barely soluble in water as it is exemplarily shown for EDAB-DOPO and TEPA-PDOPO in table 2.

[5] = Small Burner test, DIN 4102-1 class B2, edge application of flame; conditions: spray foam
Experimental: The Small Burner test equipment employed within this patent is in accordance to the requirements for the tests of the building materials class B2 specified in DIN 4102-1.
All flame tests done within this report are based on edge application of the impinging flame.
The B2-burner tests were carried out approx. one week after foaming.

[6] = 5% FR in flexible PU foam (Table 3 recipe, handmix)
[7] = 25° C., read-out: solubilitiy FR in water mg/L
[8] = 25° C., read-out: solubilitiy FR in water mmol/L
[9] = 90° C., read-out: solubilitiy FR in water mg/L
[10] = 90° C., read-out: solubilitiy FR in water mmol/L

Row | Compound | Burning Rate ([1]; 5% FR in flexible PU foam) | UL-94 HB Rating ([1]; 5% FR in flexible PU foam) | BKZ Classification [2, 6] | Td1: Temperature for 10% weight loss [3] | % Char at 800° C. [3] | TdMax: Temperature for maximum decomposition rate [3] | other results
1 | C=CCNP1(=O)Oc2ccccc2-c2ccccc21 (centres unmarked) [AA-DOPO] | 47 mm/min | HF-2 | Class 5 (flame does not reach the top level of the sample holder (150 mm). duration ≦ 20 s) | 247 °C | 3% | 295 °C | flame retardancy effect compared to unmodified DOPO ([1]; 5% FR in flexible PU foam): better flame retardancy effect as compared to unmodified DOPO
2 | O=P1(NCCN(CCN(CCN(CCNP2(=O)Oc3ccccc3-c3ccccc32)P2(=O)Oc3ccccc3-c3ccccc32)P2(=O)Oc3ccccc3-c3ccccc32)P2(=O)Oc3ccccc3-c3ccccc32)Oc2ccccc2-c2ccccc21 (centres unmarked) [TEPA-PDOPO, tetraethylenepentaamine DOPO] |  | HF-1 | Class 5 (flame does not reach the top level of the sample holder (150 mm). duration ≦ 20 s) |  |  |  | UL 94 HB test rating (Horizontal) ([1]; 5 pphp FR): HF2; UL 94 HB test rating (Horizontal) ([1]; 10 pphp FR): HF1; BKZ Class (Vertical) ([2]; 10 pphp FR, OH terminated prepolymer foam): 5; effect of more FR on flammability behavior ([2]; OH terminated prepolymer foam, 5 vs 10 pphp, horizontal and vertical tests): improves flammability behavior in both horizontal and vertical tests; water solubility in words [4]: only very small amounts; solubility [4, 7]: 15.4 mg/L; solubility [4, 8]: 0.01 mmol/L; solubility [4, 9]: 818 mg/L; solubility [4, 10]: 0.65 mmol/L; effect of doubling the amount of FR on flame height and extinguishing of the flame [5]: no significant effect
3 | O=P1(NCCNP2(=O)Oc3ccccc3-c3ccccc32)Oc2ccccc2-c2ccccc21 (centres unmarked) [EDAB-DOPO] | 25 mm/min | HF-1 | Class 5 (flame does not reach the top level of the sample holder (150 mm). duration ≦ 20 s) | 355 °C | 7% | 415 °C | flame retardancy effect compared to unmodified DOPO ([1]; 5% FR in flexible PU foam): better flame retardancy effect as compared to unmodified DOPO; flammability performance versus TCPP ([2]; polyether foam, lower density, 2.8 pphp water, columns 3 and 5): works better at least in vertical tests; effect on flammability versus foam without FR ([2]; polyether foam, water 1.6 pphp, columns 4 and 1): positive effect on flammability; flammability performance versus TCPP ([2]; polyether foam, water 1.6 pphp, columns 4 and 2): works at least as well than TCPP; water solubility in words [4]: only very small amounts; solubility [4, 7]: 393 mg/L; solubility [4, 8]: 0.8 mmol/L; solubility [4, 9]: 501 mg/L; solubility [4, 10]: 1.03 mmol/L; effect of doubling the amount of FR on flame height and extinguishing of the flame [5]: no significant effect
4 | CC(CCl)OP(=O)(OC(C)CCl)OC(C)CCl (centres unmarked) [TCPP, Tris(2-chlorisopropyl)phosphate, reference compound] |  |  |  |  |  |  | Burning Rate [1]: 23 mm/min; UL-94 HB Rating [1]: HBF; BKZ Classification [2]: Class 5 (key: Class 3: time 5-20 s; Class 4: time, duration of burning > 20 s; Class 5: flame does not reach the top level of the sample holder (150 mm). duration ≦ 20 s)
5 | O=P1(N2CCN(P3(=O)Oc4ccccc4-c4ccccc43)CC2)Oc2ccccc2-c2ccccc21 (centres unmarked) [PB-DOPO] | 57 mm/min | HBF | Class 5 (flame does not reach the top level of the sample holder (150 mm). duration ≦ 20 s) | 387 °C | 5% | 433 °C | 
6 | O=[PH]1Oc2ccccc2-c2ccccc21 (centres unmarked) [DOPO, 9,10-dihydro-9-oxa-phosphaphenanthrene-10-oxide, reference compound] | 48 mm/min | HBF | Class 5 (flame does not reach the top level of the sample holder (150 mm). duration ≦ 20 s) | 201 °C | 2% | 267 °C | temperature at which decomposition starts [3]: < 200 °C
7 | O=P1(NCCOP2(=O)Oc3ccccc3-c3ccccc32)Oc2ccccc2-c2ccccc21 (centres unmarked) [EAB-DOPO] |  |  |  | 311 °C | 2% | 387 °C | 
8 | O=P1(NCCN(CCNP2(=O)Oc3ccccc3-c3ccccc32)P2(=O)Oc3ccccc3-c3ccccc32)Oc2ccccc2-c2ccccc21 (centres unmarked) [TDETA-DOPO] |  | HF-1 | Class 5 (flame does not reach the top level of the sample holder (150 mm). duration ≦ 20 s) | 294 °C | 2% | 385 °C | 
9 | CCO[Si](CCCNP1(=O)Oc2ccccc2-c2ccccc21)(OCC)OCC (centres unmarked) [TESPA-DOPO] |  |  |  | 234 °C | 28% | 135/287/437 | 
